Results as given in patent US9745302B2 (TriOptoTec GmbH, priority 2011, dated 2017).
Counter-ions that a name gives are not always drawn.

Tests used:
[1] = tested on: Staphylococcus aureus (ATCC number: 25923); experiment: Phototoxicity test (photodynamic inactivation, CFU count by Miles and Misra); format: cell-based; conditions: irradiated at 50 mW/cm^2, 210 sec, 390-500 nm, CFU/ml counted after 24 h, median of 3
Description: (§1) A sample of the bacterial strain Staphylococcus aureus (ATCC number: 25923) or Escherichia coli (ATCC number: 25922) was taken from a cryogenically frozen culture, isolated on Müller-Hinton agar plates and cultivated under aerobic conditions at 37° C. in an overnight culture. Thereafter, 5 ml of Müller-Hinton liquid medium were inoculated with a smear of the bacterial culture (single colony) and incubated at 37° C. overnight. The bacterial suspension thus obtained was centrifuged at 2500 rpm for 10 min and the bacterial pellet obtained was resuspended in 5 ml of sterile PBS. The optical density of the bacterial suspension for the phototoxicity tests was OD600 nm=0.6, which corresponds to a bacteria count of ˜[…] bacteria per ml. The biochemical analysis and resistance determination of the bacteria were conducted with the VITEK2 system according to the M100-S14 guidelines from the NCCLS (2004).
(§2) 200 μl of a bacterial suspension (bacterial density: 10^8-10^12/ml) were incubated with 200 μl of each of various concentrations of the photosensitizers to be tested at room temperature for 10 min or 30 min. Thereafter, the bacteria were washed twice with distilled water and resuspended in 200 μl of distilled water, and the entire volume was transferred to a 96-well microtiter plate and then irradiated. The photosensitizers used were dissolved in distilled water and various dilution series were prepared (0 μM, 1 μM, 10 μM, 100 μM).
(§3) For sensitization, the Omnicure Series 2000 lamp (Photonics Solutions Inc., Edinburgh, UK) was used, which emits light from a range from 390 nm to 500 nm and has emission maxima Emax at 405 nm and 436 nm. The power applied in each case was 50 mW/cm^2.
(§4) Irradiated and unirradiated samples were used as controls. Likewise run were bacterial suspensions incubated only with photosensitizer (dark control).
(§5) The determination of the colony-forming units (CFU) per ml was conducted by the method published by Miles and Misra (Miles, A A; Misra, S S, Irwin, J O (1938 November). “The estimation of the bactericidal power of the blood.”. The Journal of hygiene 38 (6): 732-49). For this purpose, serial dilutions from 10^−2 to 10^−9 of the corresponding bacterial suspension were prepared. 3×20 μl of each of the corresponding bacterial dilutions were then dripped onto Müller-Hinton plates and incubated at 37° C. for 24 h. Thereafter, the number of surviving colony-forming units (CFU) was determined. Each of the experiments was repeated three times.
(§6) The effectiveness of phototoxicity with respect to bacteria after irradiation was defined according to the following guidelines for hand hygiene in the health sector (Boyce, J. M., and D. Pittet. 2002. Guideline for Hand Hygiene in Health-Care Settings: recommendations of the Healthcare Infection Control Practices Advisory Committee and the HICPAC/SHEA/APIC/IDSA Hand Hygiene Task Force. Infect Control Hosp Epidemiol 23: p. 3-40): • reduction in the CFU/ml by 1 log10 stage ? 90% effectiveness • reduction in the CFU/ml by 3 log10 stages ? 99.9% effectiveness • reduction in the CFU/ml by 5 log10 stages ? 99.999% effectiveness
(§7) For effective inactivation, the decrease of ≧3 log10 stages can therefore be adopted, and S. aureus and E. coli were chosen as examples of representatives from the group of the Gram-positive and Gram-negative bacteria (see Boyce J. M and D. Pittet 2009).

[2] = tested on: Escherichia coli (ATCC number: 25922); experiment: as above; format: cell-based; conditions: irradiated at 50 mW/cm^2, 210 sec, 390-500 nm, CFU/ml counted after 24 h, median of 3
Description: as §1, §2, §3, §4, §5, §6, §7

| SMILES | Required concentration [μM] to achieve a reduction by ≧3log10 stages (decrease by 99.9%), irradiation at 10.5 J/cm^2, S. aureus ([1]; incubation 10 min) [μM] | Required concentration [μM] to achieve a reduction by ≧3log10 stages (decrease by 99.9%), irradiation at 10.5 J/cm^2, E. coli ([2]; incubation 10 min) [μM] | Required concentration [μM] to achieve a reduction by ≧3log10 stages (decrease by 99.9%), irradiation at 10.5 J/cm^2, S. aureus ([1]; incubation 30 min) [μM] | Required concentration [μM] to achieve a reduction by ≧3log10 stages (decrease by 99.9%), irradiation at 10.5 J/cm^2, E. coli ([2]; incubation 30 min) |
| --- | --- | --- | --- | --- |
| Cc1cc2nc3c(=O)[nH]c(=O)nc-3n(CC(OC(=O)C(N)CCCCN)C(OC(=O)C(N)CCCCN)C(COC(=O)C(N)CCCCN)OC(=O)C(N)CCCCN)c2cc1C (centres unmarked) | 10 | 10 |  |  |
| Cc1cc2nc3c(=O)n(CCN)c(=O)nc-3n(CCN)c2cc1C [FL-02, 3,10-bis(2′-aminoeth-1′-yl)-7,8-dimethylbenzo[g]pteridine-2,4-dione hydrochloride] | 10 | 10 |  |  |
| CC(=O)OCC(OC(C)=O)C(OC(C)=O)C(Cn1c2nc(=O)n(CCC[n+]3ccc(-c4cc[n+](C)cc4)cc3)c(=O)c-2nc2cc(C)c(C)cc21)OC(C)=O.[I-].[I-] (centres unmarked) [FL-08, 1-{3-[7,8-dimethyl-2,4-dioxo-10-(2,3,4,5-tetraacetoxypentyl)-4,10-dihydro-2H-benzo[g]pteridin-3-yl]propyl}methyl-[4,4′]bipyridinyl-1-ium diiodide] | 1 | 1 |  |  |
| CCCCn1c2nc(=O)n(CCC[n+]3ccc(-c4cc[n+](C)cc4)cc3)c(=O)c-2nc2cc(C)c(C)cc21.[I-].[I-] [FL-08b, 1-{3-[7,8-dimethyl-2,4-dioxo-10-(butyl)-4,10-dihydro-2H-benzo[g]pteridin-3-yl]-propyl}methyl-[4,4′]bipyridinyl-1-ium diiodide] | 10 | 50 |  |  |
| CC[N+](CC)(CC)Cc1cc2c(cc1C)nc1c(=O)n(CCN)c(=O)nc-1n2CCN.Cl.Cl.[Br-] [FL-13, [3,10-bis(2-aminoethyl)-7-methyl-2,4-dioxo-2,3,4,10-tetrahydro-benzo[g]pteridin-8-ylmethyl]triethylammonium bromide dihydrochloride] |  |  | 10 | 10 μM |
| CCCCn1c2nc(=O)n(CC[N+](C)(C)C)c(=O)c-2nc2cc(C)c(C[N+](CC)(CC)CC)cc21.[Br-].[Br-] [FL-15, [10-butyl-3-(2-trimethylammoniumethyl)-7-methyl-2,4-dioxo-2,3,4, 10-tetrahydrobenzo[g]pteridin-8-ylmethyl]triethylammonium dibromide] |  |  | 10 | 10 μM |
| Cc1cc2nc3c(=O)n(CC[N+](C)(C)C)c(=O)nc-3n(CC[N+](C)(C)C)c2cc1C.[I-].[I-] [FL-17, 3,10-bis(2-trimethylammoniumethyl)-7,8-dimethyl-10H-benzo[g]pteridine-2,4-dione dibromide] |  |  | 100 | 100 μM |
| Cc1cc2nc3c(=O)n(CCN)c(=O)nc-3n(CC[N+](C)(C)CCN)c2cc1C.Cl.Cl.[Cl-] [FL-24, (2-aminoethyl)-{2-[3-(2-aminoethyl)-7,8-dimethyl-2,4-dioxo-3,4-dihydro-2H-benzo[g]pteridin-10-yl]ethyl}dimethylammonium chloride dihydrochloride] |  |  | 10 | >100^(*^) μM |
| Cc1cc2nc3c(=O)n(CC[N+](C)(C)C)c(=O)nc-3n(CC[N+](C)(C)CC[N+](C)(C)C)c2cc1C.[Br-].[Br-].[Br-] [FL-26, 3-(2-trimethylammoniumethyl)-10-{2-[(2-trimethylammoniumethyl)dimethyl-ammonium]ethyl}-7,8-dimethyl-10H-benzo[g]pteridine-2,4-dione tribromide] |  |  | 10 | >100^(*^) μM |
| Cc1cc2nc3c(=O)[nH]c(=O)nc-3n(CCNCCN)c2cc1C.Cl.Cl [FL-27, (2-aminoethyl)-[2-(7,8-dimethyl-2,4-dioxo-3,4-dihydro-2H-benzo[g]pteridin-10-yl)ethyl]amine dihydrochloride] |  |  | 10 | 100 μM |
